Data reported in patent publication US20190004070A9 (JNC CORPORATION, priority 2012, published 2019).
Entries after “also recorded” stand apart in the source; their conditions may differ.

Assays:
[1] = tested on: human platelet rich plasma; experiment: Agonist-induced platelet aggregation in normal and aspirinized PRP, PAP 8E platelet aggregometer (Example 1); type: cell-based; conditions: for ability to detect the drug in the presence of aspirin: aspirinized PRP, synthetic collagen 8-64 ng/mL; for effect on biological collagen-induced aggregation: Bio/Data and Chrono Log biological collagen; for effect on Bio/Data collagen-induced aggregation: Bio/Data collagen 190 μg/mL; for effect on arachidonic acid-induced aggregation: arachidonic acid 500 μg/mL; for antiplatelet effect in synthetic collagen-induced aggregation at lower concentrations: synthetic collagen 32 ng/mL and lower (32, 16, 8 ng/mL); for effect on 64 ng/mL synthetic collagen-induced aggregation: synthetic collagen 64 ng/mL
Protocol: ADP was obtained from Bio/Data Corporation, Horsham, Pa. Each vial was reconstituted with 1 mL of deionized water to make a 100 μM working solution. The final concentration of ADP in the aggregation cuvette was 10 μM.
Arachidonic acid was obtained from Bio/Data Corporation, Horsham, Pa. Each vial was reconstituted with 0.5 mL deionized water to make a 5 mg/mL working solution. The final concentration of arachidonic acid in the aggregation cuvette was 500 μg/mL.
Biological Collagen was obtained from Bio/Data Corporation, Horsham, Pa. Each vial was reconstituted with 0.5 mL deionized water to make a 1.9 mg/mL working solution. The final concentration of Bio/Data collagen in the aggregation cuvette was 190 μg/mL.
Biological Collagen was obtained from Chrono Log Corporation, Havertown, Pa. as a 1 mg/mL solution. A working solution of 100 μg/mL was made by dilution with physiologic saline. The final concentration of Chrono Log collagen in the aggregation cuvette was 10 μg/mL.
Synthetic collagen was provided by JNC Corporation, Yokohama, Japan at working concentrations of 80, 160, 320 and 640 ng/mL. The final concentrations of synthetic collagen in the aggregation cuvette were 64, 32, 16 and 8 ng/mL.
Approval for the collection of whole blood from healthy human volunteers was granted from the Institutional Review Board of the Health Sciences Division of Loyola University Chicago. Whole blood was drawn using a double syringe technique from the antecubital vein and anticoagulated by the addition of 1 part 3.2% sodium citrate to (9 parts blood to 1 part citrate). Citrated blood was centrifuged at 80×g at room temperature for 15 minutes to make platelet rich plasma (PRP). Supernatant PRP was collected and kept at room temperature in capped tubes. The remaining citrated blood was recentrifuged at 1,100×g for 15 minutes to make platelet poor plasma (PPP). The platelet count of the PRP was determined using an ICHOR II Analyzer, Helena Laboratories, Beaumont, Tex. Platelet count in the PRP was adjusted to 250,000-300,000/μl by the addition of homologous PPP.
Six blood donors were used for this study. Each was drawn on separate days for the ‘non-aspirinized’ and ‘aspirinized’ portions of the protocol. For the ‘non-aspirinized’ portion of the protocol, one donor ([…]) was excluded from the final analysis as the aggregation responses were markedly different from that of the other 5 donors.
Platelet aggregation was measured using a PAP 8E platelet aggregometer (Bio/Data). Each well was blanked using PPP. 25 μl of saline or antiplatelet drug and 200 μl of PRP were added to cuvettes containing magnetic stir bars and incubated for three minutes to equilibrate the sample to 37° C. 25 μl of agonist was added to each cuvette and the aggregation profile was monitored until a plateau was achieved. Results were tabulated in terms of maximal aggregation level. Under some reaction conditions, reversible aggregation was observed. This was most commonly observed with ADP and arachidonic acid-induced aggregation in the presence of ticagrelor or cilostazol. Final aggregation levels were also tabulated.

[2] = tested on: PRP samples of healthy donors; experiment: LTAAs using synthetic collagen with anti-platelet medication added to the PRP sample (Example 2); type: cell-based; conditions: synthetic collagen 12.5, 25, 50, 100 ng/mL
Protocol: Two healthy donors supplied the PRP samples. A panel of four different synthetic collagen concentrations were tested (12.5 ng/mL, 25 ng/mL, 50 ng/mL and 100 ng/mL Abciximab was added to the each of the four panels of different synthetic collagen concentrations. In one panel, saline was added as the control to each of the four synthetic collagen concentrations. In the second panel, 12.5 μg/mL (micrograms/mL) of abciximab was added to each of the four synthetic collagen concentrations. In a third panel, 25 μg/mL of abciximab was added to each of the four synthetic collagen concentrations. In a fourth panel, 50 μg/mL of abciximab was added to each of the four synthetic collagen concentrations. LTAAs were run for each and the PA, PS, SA, SS AUC, LP, DA, MA and FA was measured for each. The tests were run on each of the donors' samples.
Two healthy donors supplied the PRP samples. […] LTAAs were run for each and the PA, PS, SA, SS AUC, LP, DA, MA and FA was measured for each. […]

platelet aggregation = conditions: Aspirin doses greater than 100 mg; cited from earlier work
[3] = non-aspirinized plasma, ADP 10 μM
[4] = non-aspirinized plasma, Chrono Log collagen 10 μg/mL

CCCSc1nc(N[C@@H]2C[C@H]2c2ccc(F)c(F)c2)c2nnn([C@@H]3C[C@H](OCCO)[C@@H](O)[C@H]3O)c2n1 [ticagrelor, (1S,2S,3R,5S)-3-[7-[[(1R,2S)-2-(3,4-difluorophenyl)cyclopropyl]amino]-5-propylsulfanyltriazolo[4,5-d]pyrimidin-3-yl]-5-(2-hydroxyethoxy)cyclopentane-1,2-diol]
ability to detect the drug in the presence of aspirin [1]: affected the ability; also recorded: can be detected | anti-platelet effect in 8 ng/mL synthetic collagen-induced aggregation ([1]; aspirinized plasma): no longer observed | anti-platelet effect in 16 and 32 ng/mL synthetic collagen-induced aggregation ([1]; aspirinized plasma): reduced | anti-platelet effect in arachidonic acid-induced aggregation ([1]; aspirinized plasma): no longer observed | effect of adding aspirin on the drug's ADP-induced aggregation response ([1]; aspirinized plasma, ADP 10 μM): did not affect | effect on ADP-induced aggregation [1, 3]: strongly inhibited; also recorded: inhibited | effect on biological collagen-induced aggregation ([1]; non-aspirinized plasma): little effect | effect on Bio/Data collagen-induced aggregation ([1]; non-aspirinized plasma): Neither Bio/Data collagen, Chrono Log collagen nor 64 ng/mL synthetic collagen was markedly impacted | effect on Chrono Log collagen-induced aggregation [1, 4]: Neither Bio/Data collagen, Chrono Log collagen nor 64 ng/mL synthetic collagen was markedly impacted | effect on arachidonic acid-induced aggregation ([1]; non-aspirinized plasma): inhibited to a similar extent | antiplatelet effect in synthetic collagen-induced aggregation at lower concentrations ([1]; non-aspirinized plasma): could be identified; also recorded: readily apparent | effect on 64 ng/mL synthetic collagen-induced aggregation ([1]; non-aspirinized plasma): Neither Bio/Data collagen, Chrono Log collagen nor 64 ng/mL synthetic collagen was markedly impacted; also recorded: minimal effect | detection of the drug by synthetic collagen LTAA [2]: the assays worked with both | effect of aspirin dose on ticagrelor's inhibition of platelet aggregation (platelet aggregation): reduce the ability of ticagrelor to inhibit platelet aggregation

CC(=O)Oc1ccccc1C(=O)O [aspirin, 2-acetyloxybenzoic acid]
effect of aspirin on ADP-induced aggregation ([1]; 10 μM ADP): minimally affected | effect of aspirin on Chrono Log collagen-induced aggregation ([1]; 10 μg/mL Chrono Log collagen): did not inhibit; also recorded: not inhibited | effect of aspirin on Bio/Data collagen-induced aggregation ([1]; 0.19 mg/mL Bio/Data collagen): minimally affected; also recorded: not inhibited | effect of aspirin on synthetic collagen-induced aggregation ([1]; all synthetic collagen concentrations tested (8-64 ng/mL)): lower levels of aggregation; also recorded: higher sensitivity to aspirin | arachidonic acid-induced aggregation in aspirinized plasma ([1]; aspirin taken orally <48 hours before draw or 100 μM in vitro, no other drug): < 20% | response to arachidonic acid in aspirinized plasma ([1]; aspirin taken orally or 100 μM in vitro): nearly completely blunted

O=C1CCc2cc(OCCCCc3nnnn3C3CCCCC3)ccc2N1 [cilostazol]
ability to detect the drug in the presence of aspirin [1]: negated the ability to detect cilostazol; also recorded: affected the ability | effect on ADP-induced aggregation [1, 3]: minimally affected; also recorded: weaker, concentration-dependent inhibition | effect on biological collagen-induced aggregation ([1]; non-aspirinized plasma): unaffected | effect on Bio/Data collagen-induced aggregation ([1]; non-aspirinized plasma): did not inhibit | effect on Chrono Log collagen-induced aggregation [1, 4]: did not inhibit | effect on arachidonic acid-induced aggregation ([1]; non-aspirinized plasma): strongly inhibited | antiplatelet effect in synthetic collagen-induced aggregation at lower concentrations ([1]; non-aspirinized plasma): could be observed; also recorded: readily apparent | effect on 64 ng/mL synthetic collagen-induced aggregation ([1]; non-aspirinized plasma): did not inhibit; also recorded: minimal effect

B1: abciximab: Immunoglobulin Fragment Fab Fragment Chimeric monoclonal antibody 7E3 (GP IIbIIIa receptor blocker) (antibody, chains of the INN, looked up, V domains shown)
VH: EVQLQQSGTVLARPGASVKMSCEASGYTFTNYWMHWVKQRPGQGLEWIGAIYPGNSDTSYIQKFKGKAKLTAVTSTTSVYMELSSLTNEDSAVYYCTLYDGYYVFAYWGQGTLVTVSA
VL: EIVLTQSPVTLSVTPGDSVSLSCRASRDISNNLHWFQQTSHESPRLLIKYASQSMSGIPSRFSGSGSGTDFTLSINSVETEDFGMYFCQQTNSWPYTFGGGTKLEIK
modifications: Fab
inhibition of Chrono Log collagen-induced aggregation ([1]; aspirinized PRP compared with non-aspirinized, Chrono Log collagen 10 μg/mL): stronger inhibition | ability to detect the drug in the presence of aspirin [1]: readily detectable | anti-platelet effect in arachidonic acid-induced aggregation ([1]; aspirinized plasma): complete inhibition | concentration at which inhibition of Bio/Data collagen-induced aggregation was observed ([1]; non-aspirinized plasma): 5 µg/mL | concentration at which inhibition of Chrono Log collagen-induced aggregation was observed ([1]; non-aspirinized plasma): 5 μg/mL | effect on ADP-induced aggregation [1, 3]: inhibited | effect on biological collagen-induced aggregation ([1]; non-aspirinized plasma): inhibited | effect on arachidonic acid-induced aggregation ([1]; non-aspirinized plasma): most sensitive; also recorded: inhibited | inhibition of agonist-induced aggregation ([1]; non-aspirinized plasma, concentration range tested 1.25-5 μg/mL): concentration-dependent inhibition | antiplatelet effect in synthetic collagen-induced aggregation at lower concentrations ([1]; non-aspirinized plasma): most sensitive; also recorded: readily apparent | effect on 64 ng/mL synthetic collagen-induced aggregation ([1]; non-aspirinized plasma): inhibited by abciximab to a comparable degree | detection of the drug by synthetic collagen LTAA [2]: the assays worked with both
